Source: patent publication US20050136121A1, “Oral peptide delivery system with improved bioavailability” (SHEAR/KERSHMAN LABORATORIES, INC., priority 2003, published 2005)

Assay: Study 2: female adult dogs fed formulations or injected with Humulin, serum glucose level
Type: in vivo
Protocol: Female adult dogs were fed the formulations from Examples 3 to 5. Further dogs were injected with Humulin and given 0.05 mL of 100 U/mL. Before being fed or injected the formulations, the animals fasted overnight. The dogs were fed 4 to 6 hours after dosing.

Humulin: injected insulin comparator, 0.05 mL of 100 U/mL
time after dosing at which glucose level began increasing (injected 0.05 mL of 100 U/mL): about 2 hours
drop in glucose levels (injected 0.05 mL of 100 U/mL, within minutes): 67%
time at which glucose levels returned to normal levels (injected, after eating): about 12 hours
glucose levels at hours 6 to 10 (injected, ate dog food at 4 to 6 hours): above the normal levels
